In this test the target is T1, human GR (Homo sapiens, UniProt P04150).
T1 sequence (P04150 1-777): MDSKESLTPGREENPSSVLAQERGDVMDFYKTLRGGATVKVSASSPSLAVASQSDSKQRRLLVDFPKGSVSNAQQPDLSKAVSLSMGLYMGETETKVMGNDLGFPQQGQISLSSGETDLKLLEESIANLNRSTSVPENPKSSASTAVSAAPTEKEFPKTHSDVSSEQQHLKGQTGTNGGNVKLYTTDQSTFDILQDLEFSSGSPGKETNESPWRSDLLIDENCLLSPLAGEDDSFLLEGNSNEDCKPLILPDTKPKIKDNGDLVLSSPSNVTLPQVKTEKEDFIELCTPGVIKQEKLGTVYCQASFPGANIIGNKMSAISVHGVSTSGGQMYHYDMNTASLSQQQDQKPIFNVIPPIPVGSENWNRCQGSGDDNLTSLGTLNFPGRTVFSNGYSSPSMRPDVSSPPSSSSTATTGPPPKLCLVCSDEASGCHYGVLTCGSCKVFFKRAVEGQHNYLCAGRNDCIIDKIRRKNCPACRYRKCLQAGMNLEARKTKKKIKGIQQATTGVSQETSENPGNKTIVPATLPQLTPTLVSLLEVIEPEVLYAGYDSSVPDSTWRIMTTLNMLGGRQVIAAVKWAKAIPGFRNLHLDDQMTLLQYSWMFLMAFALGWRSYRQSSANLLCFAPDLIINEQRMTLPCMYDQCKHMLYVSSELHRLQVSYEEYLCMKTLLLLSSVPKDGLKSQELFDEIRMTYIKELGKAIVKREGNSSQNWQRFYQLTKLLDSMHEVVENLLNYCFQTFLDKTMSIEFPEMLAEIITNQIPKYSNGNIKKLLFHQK
In words: Transrepression Assay (GITAR), TNFα-β-lactamase reporter in U937 cells. Further details: U937 cells contain an endogenous glucocorticoid receptor (GR); endogenous in cells; host or cells: U937 cells stably transfected with the TNF-alpha promoter/beta-lactamase reporter. The class given is cell-based. The note with it: for GITAR > GRAMM % SEP: GITAR Emax minus GRAMMER Emax; for EC50: U937 cells, inflection point, read-out: Transrepression U937 Cells GITAR IP. From the text: This assay assesses the ability of test compounds to control transcription from the TNFα-β-lactamase reporter gene in U937 cells, a human myelomonocytic leukemia cell line that naturally expresses the human GR. The assay measures compound dependent-repression of the TNFa promoter linked to a reporter gene.
The human U937 cells that had been stablely transfected with the TNF-α promoter driving β-lactamase are used for this assay. U937 cells contain an endogenous glucocorticoid receptor (GR). Cells are maintained in RPMI 1640 Growth medium (Gibco Cat#11875-093) containing 25 mM HEPES, 10% FBS, 2 mM L-Glutamine, 1 mM Sodium pyruvate, 25 μg/ml Gentamicin (Gibco Cat#15710-064), 1:1000 2-Mercaptoethanol (Gibco Cat#21985-023) and 0.8 mg/ml G418 (Gibco Cat#10131-027). The density of the cells in the flask needs to be about 1×10^6−3×10^6/ml at the time of harvest. Usually, the cells are split to 1.2˜1.4×10^5/ml (1:10) 3 days prior to the assay. 50,000 cells/well are plated in 96 well black-walled plates the day of assay. Test compounds are added 10 μL/well, and cells are incubated at 37° C. for 30˜45 min. For assaying compounds, first dilute 1:10 in DMSO to make 1 mM, then further dilute 1:100 in medium to make 10× stock prior to adding to the cells. Add 50 ng/mlPMA (Sigma, cat# P8139) 10 μL/well to a final concentration 5 ng/ml, and 1 μg/ml LPS (Sigma, cat# L4130) 10 μL/well to a final concentration 100 ng/ml. Incubate cells at 37° C. overnight for ˜18 hr. PMA is stored frozen as 100 μg/ml stock in DMSO. Dilute 1:10 in DMSO for a working stock of 10 μg/ml and store at −20 C. For assaying, dilute the 10 μg/ml working stock 1:200 in medium to make a 10× solution (50 ng/ml). Store frozen LPS at 1 mg/ml in PBS, dilute 1:1000 in medium to make 10× (1 μg/ml) for the assay. Add 6× loading buffer (CCF2-AM) 20 μL/well, and incubate at room temperature for 70˜90 min. […] The activity repressed by 100 nM dexamethasone alone is set as 100% activity.

Setting [1] is: U-937, U937 cells, maximum activity, read-out: Transrepression U937 Cells GITAR Emax.
Setting [2] is: U-937, activity repressed by 100 nM dexamethasone alone set as 100%, read-out: maximal activity in the transrepression (GITAR) assay.

SMILES strings stand for the structures. Like-named read-outs stand apart in the source and are kept apart here.

In the case of `COCCN(C[C@H]1CCC2=Cc3c(cnn3-c3ccc(F)cc3)C[C@@]21C)S(C)(=O)=O` [Example 96, N-{[(4αR,5S)-1-(4-fluorophenyl)-4α-methyl-1,4,4α,5,6,7-hexahydrocyclopenta[f]indazol-5-yl]methyl}-N-(2-methoxyethyl)methanesulfonamide], the “GITAR > GRAMM % SEP” value stood at 19.3% and the EC50 was determined as 124 nM. Also, the Emax under setting [1] came out at 85%. Moreover, the Emax under setting [2] is greater than 5%.

As to `COCCN(C[C@H]1CCC2=Cc3c(cnn3-c3ccc(F)cc3)C[C@@]21C)S(=O)(=O)CC(F)(F)F` [Example 97, 2,2,2-trifluoro-N-{[(4αR,5S)-1-(4-fluorophenyl)-4α-methyl-1,4,4α,5,6,7-hexahydrocyclopenta[f]indazol-5-yl]methyl}-N-(2-methoxyethyl)ethanesulfonamide], the “GITAR > GRAMM % SEP” value worked out at 2.2% and the EC50 came out at 49 nM. The Emax under setting [1] was determined as 85.9%. Moreover, the Emax under setting [2] was greater than 5%.

On to `Cn1cc(S(=O)(=O)N(CCc2ccccc2F)C[C@H]2CCC3=Cc4c(cnn4-c4ccc(F)cc4)C[C@@]32C)c(C(F)(F)F)n1` [Example 98, N-[2-(2-fluorophenyl)ethyl]-N-{[(4αR,5S)-1-(4-fluorophenyl)-4α-methyl-1,4,4α,5,6,7-hexahydrocyclopenta[f]indazol-5-yl]methyl}-1-methyl-3-(trifluoromethyl)-1H-pyrazole-4-sulfonamide], for which the “GITAR > GRAMM % SEP” value amounted to 13.2% and the EC50 came out at 64.3 nM. Moreover, the Emax under setting [1] worked out at 89.9%. Further, the Emax under setting [2] was greater than 5%.

With `C[C@]12Cc3cnn(-c4ccc(F)cc4)c3C=C1CC[C@@H]2CN(CCc1ccccc1F)S(=O)(=O)c1ccccc1C(F)(F)F` [Example 99, N-[2-(2-fluorophenyl)ethyl]-N-{[(4αR,5S)-1-(4-fluorophenyl)-4α-methyl-1,4,4α,5,6,7-hexahydrocyclopenta[f]indazol-5-yl]methyl}-2-(trifluoromethyl)benzenesulfonamide], the “GITAR > GRAMM % SEP” value is 24.6% and the EC50 is 64.4 nM. For the same compound, the Emax under setting [1] amounted to 86.8%. For the same compound, under setting [2], the Emax was greater than 5%.

`C[C@]12Cc3cnn(-c4ccc(F)cc4)c3C=C1CC[C@@H]2CN(CCc1ccccc1F)S(=O)(=O)c1ccccc1Cl` [Example 100, 2-chloro-N-[2-(2-fluorophenyl)ethyl]-N-{[(4αR,5S)-1-(4-fluorophenyl)-4α-methyl-1,4,4α,5,6,7-hexahydrocyclopenta[f]indazol-5-yl]methyl}benzenesulfonamide]: the “GITAR > GRAMM % SEP” value amounted to 14.2% and the EC50 was 192 nM. In addition, the Emax under setting [1] came out at 79.1%. Besides, the Emax under setting [2] was greater than 5%.

On to `CCCCS(=O)(=O)N(CCc1ccccc1F)C[C@H]1CCC2=Cc3c(cnn3-c3ccc(F)cc3)C[C@@]21C` [Example 102, N-[2-(2-fluorophenyl)ethyl]-N-{[(4αR,5S)-1-(4-fluorophenyl)-4α-methyl-1,4,4α,5,6,7-hexahydrocyclopenta[f]indazol-5-yl]methyl}butane-1-sulfonamide], for which the “GITAR > GRAMM % SEP” value came out at 8.2% and the EC50 was 95.1 nM. Also, under setting [1], the Emax came to 86.5%. Also, the Emax under setting [2] is greater than 5%.

Regarding `CC(C)CS(=O)(=O)N(CCc1ccccc1F)C[C@H]1CCC2=Cc3c(cnn3-c3ccc(F)cc3)C[C@@]21C` [Example 103, N-[2-(2-fluorophenyl)ethyl]-N-{[(4αR,5S)-1-(4-fluorophenyl)-4α-methyl-1,4,4α,5,6,7-hexahydrocyclopenta[f]indazol-5-yl]methyl}-2-methylpropane-1-sulfonamide], the “GITAR > GRAMM % SEP” value is given as 7.7% and the EC50 worked out at 177 nM. Also, the Emax under setting [1] stood at 76.5%. Further, under setting [2], the Emax was greater than 5%.

These data come from patent publication US8299048B2, “Hexahydrocyclopentyl[f]indazole sulfonamides and derivatives thereof as selective glucocorticoid receptor modulators” (Merck Sharp & Dohme Corp., priority 2008, dated 2012).
